One series addresses T1, PDE10 from pig striatum (Sus scrofa, UniProt A0A287B941).
T1 construct: "Striatum from male hybrid pigs (150 kg)"
The experiment in a line: Inhibition of PDE10 from pig striatum. The class given is biochemical. The conditions noted are these: 0.1 μM [3H]-cAMP, 37° C., 30 minutes. As to the method: Phosphodiesterase isoenzyme 10 (PDE10) activity was determined in preparations of human recombinant PDE10A and PDE10 from pig striatum, respectively.
Striatum from male hybrid pigs (150 kg) were collected and frozen at −70° C.
At the day of preparation 0.5 g striatum was homogenised in 10 ml 50 mM Tris/Mg-buffer at 4° C. and centrifuged for one hour at 100000 g.
Nonspecific activity was tested without the enzyme. […] For determination of IC50 values the Hill-plot, 2-parameter-model, was used.
Phosphodiesterase isoenzyme 10 (PDE10) activity was determined in preparations of rat, pig and guinea pig striatum respectively. Striatum from male Wistar rats (180-200 g), male hybrid pigs (150 kg) and male guinea pigs (CRL (HA), 500 g) respectively were collected and frozen at −70° C.
For the enzymatic testing of PDE10 activity 0.5 g of the isolated and frozen striatum was homogenised in 10 ml 50 mM Tris/Mg-buffer at 4° C. and centrifuged for one hour at 100000 g.

Here are results for 46 compounds from US20090143392A1, “Methods of Treating Obesity and Metabolic Disorders” (ELBION GMBH, priority 2007, published 2009).

pIC50: −log10 of the molar value. Bounds are passed on as bounds.

In the case of “4-amino-1-hexyl-8-methoxy-3-methyl-imidazo[1,5-a]pyrido[3,2-e]pyrazine [Example 7b]”, the negative logarithm of the IC50 (pIC50) at PDE10 from pig striatum is 7.32. The same measure, in the same setting: to “8-methoxy-3-methyl-1-propyl-4-ureido-imidazo[1,5-a]pyrido[3,2-e]pyrazine [Example 67a]” belongs 7.08.

In the case of `CCc1nc(C)c2c(Cl)nc3ccc(N(CC)CC)nc3n12` [Intermediate A20], the melting point was in the range of 145 to 150 °C. At PDE10 from pig striatum, this compound gave a negative-log IC50 (pIC50) of 7.96. Regarding “3-methyl-4-methylsulfonylamino-1-propyl-imidazo[1,5-a]pyrido[3,2-e]pyrazin-8-ol [Example 86a]”, the pIC50 on PDE10 from pig striatum was 7.64. On the same count and under the same terms, then “3,4-dimethyl-1-hexyl-8-methoxy-imidazo[1,5-a]pyrido[3,2-e]pyrazine [Example 45a]”, with 7.28.

`CCCc1nc(C)cn1-c1ccc2nc(Cl)c3c(C)nc(CCC)n3c2n1` [Intermediate A24] had a melting point of 134 to 136 °C. The negative logarithm of the IC50 (pIC50) against PDE10 from pig striatum was 8.70. Regarding “4-azido-8-methoxy-3-methyl-1-propyl-imidazo[1,5-a]pyrido[3,2-e]pyrazine [Example 31a]”, the negative logarithm of the IC50 (pIC50) at PDE10 from pig striatum is 6.77. Still for that read-out and setting: then “1-propyl-3,4-dimethyl-imidazo[1,5-a]pyrido[3,2-e]pyrazine [Example 52a]”, with 7.28; and “3,4-dimethyl-8-methoxy-1-pentyl-imidazo[1,5-a]pyrido[3,2-e]pyrazine [Example 43a]”, with 7.46.

In turn, `COc1ccc2nc(Cl)c3c(C)nc(CCC(F)(F)F)n3c2n1` [Intermediate A7] yielded a melting point of 149 to 153 °C. Further, the pIC50 at PDE10 from pig striatum was 7.47. “3,4-dimethyl-8-methoxy-1-(3,3,3-trifluoropropyl)-imidazo[1,5-a]pyrido[3,2-e]pyrazine [Example 42a]” gave a pIC50 against PDE10 from pig striatum of 7.23. As for `CCCc1nc(C)c2c(Cl)nc3cccnc3n12` [Intermediate A12], the melting point was in the range of 138 to 140 °C. In addition, the pIC50 against PDE10 from pig striatum was 7.42.

On PDE10 from pig striatum, “8-methoxy-3-methyl-4-(3-isopropyl-ureido)-1-propyl-imidazo[1,5-a]pyrido[3,2-e]pyrazine [Example 68a]” had a pIC50 of 6.85. “4-difluoromethoxy-3-methyl-1-propyl-imidazo[1,5-a]pyrido[3,2-e]pyrazine-8-ol [Example 59a]”: the pIC50 against PDE10 from pig striatum is 7.96. Compared with the last compound, the pIC50 is 1.11 log units higher. Still for that read-out and setting: then “4-amino-1-(4-fluoro-phenyl)-8-methoxy-3-methyl-imidazo[1,5-a]pyrido[3,2-e]pyrazine [Example 12b]”, with 8.22.

Compound `CCc1nc(C)c2c(Cl)nc3ccc(N4CCN(C)CC4)nc3n12` [Intermediate A22] came in with a melting point of 283 to 285 °C. The negative logarithm of the IC50 (pIC50) against PDE10 from pig striatum was 7.28. The corresponding values for `CCCc1nc(C)cn1-c1ccc2nc(N)c3c(C)nc(CCC)n3c2n1` [Example 6b, 4-amino-3-methyl-1-propyll-8-(2-propyl-4-methyl-imidazol-1-yl)-imidazo[1,5-a]pyrido[3,2-e]pyrazine] are 215 to 221 °C and 9.00. “4-chloro-8-difluoromethoxy-3-methyl-1-propyl-imidazo[1,5-a]pyrido[3,2-e]pyrazine [Intermediate A28]” showed a pIC50 against PDE10 from pig striatum of 8.10. The same measure, in the same setting: then “4-chloro-3-methyl-1-propyl-imidazo[1,5-a]pyrido[3,2-e]pyrazin-8-ol [Intermediate A25]”, with 7.20. Consider `COc1ccc2nc(Cl)c3c(C)nc(C4CCCCC4)n3c2n1` [Intermediate A4], for which the melting point lay in the range of 211 to 213 °C. The pIC50 against PDE10 from pig striatum was 8.70.

`CCCc1ncc2c(C)nc3ccc(OC)nc3n12` [Example 53a]: the pIC50 against PDE10 from pig striatum is 7.37. The same measure, in the same setting: to `CCCc1nc(C)c2c(Cl)nc3ccc(N4CCCCC4)nc3n12` [Intermediate A21] belongs 8.30; to “3,4-dimethyl-8-methoxy-1-phenyl-imidazo[1,5-a]pyrido[3,2-e]pyrazine dihydrochloride [Example 48a]”, 8.15. On the same count and under the same terms, then “8-methoxy-3-methyl-5-oxo-1-propyl-imidazo[1,5-a]pyrido[3,2-e]pyrazine [Example 60a]”, with 7.64. For `COc1ccc2nc(Cl)c3cnc(C(C)C)n3c2n1` [Intermediate A14], the melting point lay in the range of 162 to 164 °C. The negative logarithm of the IC50 (pIC50) on PDE10 from pig striatum was 6.89. “8-methoxy-3-methyl-1-propyl-4-trifluoromethylsulfonylamino-imidazo[1,5-a]pyrido[3,2-e]pyrazine [Example 73a]” showed a pIC50 against PDE10 from pig striatum of 7.72. At PDE10 from pig striatum, “4-isopropylsulfonylamino-8-methoxy-3-methyl-1-propyl-imidazo[1,5-a]pyrido[3,2-e]pyrazine [Example 75a]” gave a negative-log IC50 (pIC50) of 7.11. Against the preceding compound, the pIC50 is 0.61 log units lower. On to “1-cyclohexyl-3,4-dimethyl-8-methoxy-imidazo[1,5-a]pyrido[3,2-e]pyrazine [Example 44a]”, for which the pIC50 against PDE10 from pig striatum was 8.52. For the compound “8-methoxy-3-methyl-1-phenethyl-4-methylsulfonylamino-imidazo[1,5-a]pyrido[3,2-e]pyrazine [Example 80a]”, the negative-log IC50 (pIC50) on PDE10 from pig striatum was 7.43. This pIC50 is 1.09 log units lower than that of the compound before.

Regarding “8-difluoromethoxy-3-methyl-4-methylsulfonylamino-1-propyl-imidazo[1,5-a]pyrido[3,2-e]pyrazine [Example 87a]”, at PDE10 from pig striatum, the pIC50 was 7.82. Turning to “4-ethylsulfonylamino-8-methoxy-3-methyl-1-propyl-imidazo[1,5-a]pyrido[3,2-e]pyrazine [Example 71a]”, at PDE10 from pig striatum, the pIC50 was 6.90.

Consider `CCCc1ncc2c(Cl)nc3ccc(OC)nc3n12` [Intermediate A13], for which the melting point was in the range of 153 to 155 °C. On PDE10 from pig striatum, this compound gave a pIC50 of 7.28.

Compound `CCCCCc1nc(C)c2c(Cl)nc3ccc(OC)nc3n12` [Intermediate A6] displayed a melting point of 110.5 to 113 °C. Further, on PDE10 from pig striatum, the pIC50 is 7.25. The compound “8-methoxy-4-(methoxycarbonyl-methyl-amino)-3-methyl-1-propyl-imidazo[1,5-a]pyrido[3,2-e]pyrazine [Example 65a]” gave a pIC50 on PDE10 from pig striatum of 6.25. Compound “3,4-dimethyl-8-methoxy-1-(2-chlorophenyl)-imidazo[1,5-a]pyrido[3,2-e]pyrazine [Example 49a]” had a negative-log IC50 (pIC50) against PDE10 from pig striatum of 9.00. “4-amino-8-methoxy-3-methyl-1-phenethyl-imidazo[1,5-a]pyrido[3,2-e]pyrazine [Example 9b]” showed a negative logarithm of the IC50 (pIC50) on PDE10 from pig striatum of 7.42. In turn, `CCCCCCc1nc(C)c2c(Cl)nc3ccc(OC)nc3n12` [Intermediate A5] registered a melting point of 115 to 117 °C. The same compound showed a pIC50 against PDE10 from pig striatum of 7.15. In the case of `CCc1nc(C)c2c(Br)nc3ccc(O)nc3n12` [Intermediate A26], the melting point is > 360 °C. The same compound had a negative-log IC50 (pIC50) on PDE10 from pig striatum of 7.34. For `CCc1nc(C)cn1-c1ccc2nc(C)c3c(C)nc(CC)n3c2n1` [Example 57a] the same measures were 73 to 75 °C and 7.96.

As to “8-methoxy-3-methyl-4-(3-methyl-ureido)-1-propyl-imidazo[1,5-a]pyrido[3,2-e]pyrazine [Example 66a]”, the pIC50 at PDE10 from pig striatum is 6.12. On to `CCCc1nc(C)c2c(Cl)nc3ccc(C)nc3n12` [Intermediate A19], for which the melting point is 99 to 101 °C. The compound further gave a pIC50 at PDE10 from pig striatum of 8.05. On to “1-hexyl-8-methoxy-3-methyl-4-methylsulfonylamino-imidazo[1,5-a]pyrido[3,2-e]pyrazine [Example 79a]”, for which the pIC50 against PDE10 from pig striatum is 7.96. With “8-difluoromethoxy-3,4-dimethyl-1-propyl-imidazo[1,5-a]pyrido[3,2-e]pyrazine [Example 54a]”, the pIC50 on PDE10 from pig striatum was 7.74. Compared with the last compound, the pIC50 is 0.22 log units lower. `COc1ccc2nc(Cl)c3c(C)nc(-c4ccccc4)n3c2n1` [Intermediate A9] registered a melting point of 240 to 242 °C. Moreover, the pIC50 on PDE10 from pig striatum was 8.40. In the case of `CCc1nc(C)cn1-c1ccc2nc(Cl)c3c(C)nc(CC)n3c2n1` [Intermediate A23], the melting point was in the range of 138 to 141 °C. The compound further gave a negative logarithm of the IC50 (pIC50) against PDE10 from pig striatum of 8.52. `CCc1nc(C)c2n1-c1nc(OC)ccc1NC2` [Example 93a, 1-ethyl-8-methoxy-3-methyl-4,5-dihydro-imidazo[1,5-a]pyrido[3,2-e]pyrazine] came in with a melting point of 139 to 142 °C.
